Drawing on patent US20140051679A1, “KINASE INHIBITORS AND METHOD OF TREATING CANCER WITH SAME” (UNIVERISTY HEALTH NETWORKS, priority 2011, published 2014), this text covers IC50 and GI50 for ten compounds.

The target of one assay is T1, human TTK (Homo sapiens, UniProt P33981).
T1 construct: amino terminal GST fusion of full length human TTK; purchased Invitrogen
T1 sequence (P33981 1-857): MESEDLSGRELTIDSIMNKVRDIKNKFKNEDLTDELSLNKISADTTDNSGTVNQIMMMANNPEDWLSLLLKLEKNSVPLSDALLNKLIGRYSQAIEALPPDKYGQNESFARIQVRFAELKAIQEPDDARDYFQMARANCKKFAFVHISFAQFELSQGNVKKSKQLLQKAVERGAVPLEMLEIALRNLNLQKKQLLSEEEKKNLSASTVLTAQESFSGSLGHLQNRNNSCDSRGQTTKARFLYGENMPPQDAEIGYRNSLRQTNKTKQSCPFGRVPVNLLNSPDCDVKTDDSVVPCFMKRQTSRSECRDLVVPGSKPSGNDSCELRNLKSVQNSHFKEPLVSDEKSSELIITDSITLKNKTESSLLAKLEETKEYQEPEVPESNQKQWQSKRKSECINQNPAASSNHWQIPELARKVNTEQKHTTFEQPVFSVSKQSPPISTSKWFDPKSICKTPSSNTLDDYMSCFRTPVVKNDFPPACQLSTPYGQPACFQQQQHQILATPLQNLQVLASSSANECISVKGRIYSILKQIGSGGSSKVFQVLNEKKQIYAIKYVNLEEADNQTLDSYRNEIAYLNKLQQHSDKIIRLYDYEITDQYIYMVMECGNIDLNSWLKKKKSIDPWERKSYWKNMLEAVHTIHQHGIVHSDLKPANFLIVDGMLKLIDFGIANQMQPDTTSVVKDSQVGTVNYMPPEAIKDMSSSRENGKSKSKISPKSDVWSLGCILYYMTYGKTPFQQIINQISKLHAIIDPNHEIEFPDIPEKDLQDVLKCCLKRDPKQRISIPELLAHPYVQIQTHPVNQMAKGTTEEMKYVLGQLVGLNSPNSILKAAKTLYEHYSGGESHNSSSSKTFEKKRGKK
The assay is described as follows: TTK inhibition assay (indirect ELISA). Conditions: GST-TTK 0.68 nM, 16 μM ATP; read-out: IC50 Ranges TTK. The format is biochemical. A general note: In an ELISA, binding on a coated surface is turned into a signal by an enzyme label.

The subject of the next assay is HT29 colon cancer cells. The assay is described as follows: Cell growth inhibition, Sulforhodamine B assay, HT29. Type of assay: cell-based. As to conditions: Homo sapiens, HT-29, 120 h, 5 days culture, SRB assay, read-out: Cell Line GI50 Range HT29.
Assay [1] deals with OVCAR-3 ovarian cancer cells. The assay is described as follows: Cell growth inhibition, Sulforhodamine B assay, OVCAR-3. Type of assay: cell-based. As to conditions: Homo sapiens, 120 h, 5 days culture, SRB assay, read-out: Cell Line GI50 Range OVCAR-3.
Protocol: Breast cancer cells (MDA-MB-231, MDA-MB-468), colon cancer cells (HCT116, HT29) and ovarian cancer cells (PA-1, OVCAR-3) were seeded (1000 to 4000 in 80 μl per well depending on the cell growth rate) into 96 well plates 24 hours before compound overlay. Compounds were prepared as 10 mM stock solutions in 100% DMSO which were diluted with DMEM (Dulbecco's Modified Eagle's Medium) cell growth Medium (Invitrogen, Burlington, ON, Canada) containing 10% FBS (Fetal Bovine Serum) to concentrations ranging from 50 nM to 250 μM. Aliquots (20 μl) from each concentration were overlaid to 80 μl of the pre-seeded cells in the 96 well plates to make final concentrations of 10 nM to 50 μM. The cells were cultured for 5 days before the Sulforhodamine B assay (SRB) was performed to determine the compound's cell growth inhibition activity.
Sulforhodamine B (purchased from Sigma, Oakville, ON, Canada) is a water-soluble dye that binds to the basic amino acids of the cellular proteins. Thus, colorimetric measurement of the bound dye provides an estimate of the total protein mass that is related to the cell number. the cells are fixed in situ by gently aspirating off the culture media and adding 50 μl ice cold 10% Trichloroacetic Acid (TCA) per well and incubate at 4° C. for 30-60 min, The plates are washed with water five times and allowed to air dry for 5 min. Addition of 50 μl 0.4% (w/v) SRB solution in 1% (v/v) acetic acid to each well and incubatation for 30 min at RT completes the staining reaction. Following staining, plates are washed four times with 1% acetic acid to remove unbound dye and then allowed to air dry for 5 min. The stain is solubilized with 100 μl of 10 mM Tris pH 10.5 per well. Absorbance is read at 570 nm.
The percentage (%) of relative growth inhibition was calculated by comparing to DMSO treated only cells (100%). […] The GI50 was calculated using GraphPad PRISM software (GraphPad Software, Inc., San Diego, Calif., USA).
Assay [2] relates to MDA-MB-468 breast cancer cells. The assay is described as follows: Cell growth inhibition, Sulforhodamine B assay, MDA-MB-468. As to conditions: Homo sapiens, 120 h, 5 days culture, SRB assay, read-out: Cell Line GI50 Range MDA-MB-468. The format is cell-based. Background: In SRB staining, fixed cells bind dye roughly in proportion to their protein.
The target of a further assay is T2, human PLK4 (Homo sapiens, UniProt O00444).
T2 construct: amino terminal GST fusion of residues 1-391 of human PLK4; made in house; host or cells: E. coli
T2 sequence (O00444 1-391): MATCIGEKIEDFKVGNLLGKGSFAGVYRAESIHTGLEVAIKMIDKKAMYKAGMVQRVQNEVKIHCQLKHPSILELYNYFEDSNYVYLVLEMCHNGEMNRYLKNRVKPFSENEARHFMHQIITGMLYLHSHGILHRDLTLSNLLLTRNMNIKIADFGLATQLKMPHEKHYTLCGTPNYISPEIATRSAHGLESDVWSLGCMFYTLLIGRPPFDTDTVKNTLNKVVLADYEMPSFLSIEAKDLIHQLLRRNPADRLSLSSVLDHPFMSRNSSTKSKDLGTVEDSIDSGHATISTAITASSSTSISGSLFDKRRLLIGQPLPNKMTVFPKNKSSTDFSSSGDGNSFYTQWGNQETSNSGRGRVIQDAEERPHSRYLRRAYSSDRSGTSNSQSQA
The assay is described as follows: PLK4 inhibition assay (indirect ELISA). The format is biochemical. As to conditions: GST-PLK4 4 nM, 15 μM ATP; read-out: IC50 Ranges PLK4. In outline:
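Dephosphorylated GST-tagged human PLK4 (residues 1-391, E. coli), 4 nM, preincubated 15 min with compound, then reacted 30 min with 15 μM ATP on MBP-coated plates (50 mM HEPES pH 7.5, 10 mM MgCl2, 0.01% Brij 35). Phospho-MBP detected by antibody ELISA at 450 nm. Tested at 10 μM or 10-point titrations; IC50 from 4-parameter logistic fit.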

For assay [3], the system named is Ovarian TICs, 2393A ovarian. The assay is described as follows: Ovarian tumor-initiating cell growth inhibition (Alamar Blue). The format is cell-based. Conditions: 144 h, 6 days, read-out: GI50 range 2393A ovarian.
Description: (§1) Materials and Methods: Non-tissue or tissure cultured treated T-75 flask and 96-well plates were purchased from VWR. Vitamin B-27 supplement, MEM NEAA (minimum essential medium non essential amino acids), sodium pyruvate, L-glutamine, N2 supplement, penicillin-streptomycin and fungizone/amphotericin B were obtained from Invitrogen. Lipid mixture, heparin and EGF were purchased from Sigma; bFGF from BD Biosciences. Colon tumor initiating cells (TICs) were routinely maintained using non-tissue cultured treated T-75 flasks in DMEM:F12 medium containing 0.2XB-27 supplement, 4 ug/ml heparin, 1XMEM NEAA, 1× sodium pyruvate, 1 mM glutamine, 10 pg/ul bFGF, 20 pg/ul EGF, 1×N2 supplement, lipid mixture, penicillin-streptomycin and fungizone/amphotericin B. Ovarian TICs were routinely maintained using tissue cultured treated T-75 flasks in DMEM:F12 medium containing 1XB-27 supplement, 4 ug/ml heparin, 20 pg/ul bFGF, 20 pg/ul EGF and penicillin-streptomycin.
(§2) Compounds described herein were dissolved in DMSO and further diluted in cell culture medium for GI50 determination. Colon TICs were trypsinized and seeded into non-tissue cultured treated 96-well plates with 4,000 cells/well. After 24 h, compound was added into the cell culture at different concentrations, and the final concentration of DMSO was adjusted to 0.1%. Cells were then cultured at 37° C. for 9 days. Ovarian TICs were trypsinized and seeded into tissue cultured treated 96-well plates with 1,000 cells/well. After 24 h, compound was added into the cell culture at different concentrations, and the final concentration of DMSO was adjusted to 0.1%. Cells were then cultured at 37° C. for 6 days. Cell viability was assessed by Alamar Blue assay: 10 ul of Alamar Blue was added into each well. After 4 hours incubation at 37° C., fluorescence was recorded at excitation 544 and emission 590. GI50 (Growth inhibition) was calculated using GraphPad Prism 4.0 software.
For assay [4], the system named is MDA-MB-231 breast cancer cells. The assay is described as follows: Cell growth inhibition, Sulforhodamine B assay, MDA-MB-231. Type of assay: cell-based. As to conditions: Homo sapiens, 120 h, 5 days culture, SRB assay, read-out: Cell Line GI50 Range MDA-MB-231.
Assay [5] has as its system Colon tumor initiating cells (TICs), 12 colon. The assay is described as follows: Colon tumor-initiating cell growth inhibition (Alamar Blue). The format is cell-based. As to conditions: 216 h, 9 days, read-out: GI50 range 12 colon. (Alamar Blue is a resazurin reagent that responds to reducing activity.)
Description: as §1, §2
For assay [6], the system named is HCT116 colon cancer cells. The assay is described as follows: Cell growth inhibition, Sulforhodamine B assay, HCT116. The format is cell-based. Conditions: Homo sapiens, HCT-116, 120 h, 5 days culture, SRB assay, read-out: Cell Line GI50 Range HCT116.
The target of a further assay is T3, Aurora B (Homo sapiens, UniProt Q96GD4).
T3 construct: purchased Invitrogen PV3970
T3 sequence (Q96GD4 whole entry): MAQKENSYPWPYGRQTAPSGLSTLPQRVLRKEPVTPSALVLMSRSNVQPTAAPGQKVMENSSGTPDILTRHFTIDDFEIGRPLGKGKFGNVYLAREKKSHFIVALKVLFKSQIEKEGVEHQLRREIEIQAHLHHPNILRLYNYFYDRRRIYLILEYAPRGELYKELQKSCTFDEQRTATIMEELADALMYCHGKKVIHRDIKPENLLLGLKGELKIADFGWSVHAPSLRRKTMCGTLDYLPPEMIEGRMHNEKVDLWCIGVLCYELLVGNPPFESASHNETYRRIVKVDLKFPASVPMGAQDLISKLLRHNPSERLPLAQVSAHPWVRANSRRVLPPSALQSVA
The assay is described as follows: Aurora B inhibition assay (Z-Lyte). The format is biochemical. As to conditions: 28 nM Aurora B, 128 μM ATP; read-out: IC50 Ranges Aurora B. The protocol: Aurora B inhibition was determined using the Z-Lyte assay kit from Invitrogen. The assay was performed using the recommended manufacturer's instructions with 128 μM ATP and 28 nM Aurora B (Invitrogen cat #PV3970). The % inhibition values were determined according to the manufacturer's directions and IC50 values were obtained using a non-linear 4 point logistic curve fit (XLfit4, IDBS)

The subject of assay [7] is PA-1 ovarian cancer cells. The assay is described as follows: Cell growth inhibition, Sulforhodamine B assay, PA-1. The format is cell-based. Conditions: 120 h, 5 days culture, SRB assay, read-out: Cell Line GI50 Range PA-1.

On to `O=C(NC(c1ccsc1)C1CC1)c1ccc2[nH]nc(-c3ccc(N4CCOCC4)cc3)c2c1` (stereo not shown) [Example A35, N-(cyclopropyl(thiophen-3-yl)methyl)-3-(4-morpholinophenyl)-1H-indazole-5-carboxamide], for which the IC50 on human TTK, on human PLK4 and on Aurora B was at most 5 µM in each case. Also, the GI50 (in the assay with HT29 colon cancer cells; in assay [1]; in assay [2]; in assay [3]; in [4]; in assay [5]) was at most 5 µM throughout. The GI50 in assay [6] is at most 5 µM.
As for `CN1CCC(Oc2ccc(-c3n[nH]c4ccc(C(=O)NC(c5ccsc5)C5CC5)cc34)cc2)CC1` (stereo not shown) [Example A33, N-(cyclopropyl(thiophen-3-yl)methyl)-3-(4-((1-methylpiperidin-4-yl)oxy)phenyl)-1H-indazole-5-carboxamide], the IC50 at human TTK, at human PLK4 and on Aurora B was at most 5 µM in each case. Besides, the GI50 (with HT29 colon cancer cells; in [1]; in assay [2]; in [3]; in [4]; in assay [5]) was at most 5 µM in each case. The 50% growth inhibitory concentration (GI50) in assay [6] is at most 5 µM.
For the compound `O=C(NC(c1ccccc1)C1CC1)c1ccc2[nH]nc(-c3ccc(N4CCOCC4)cc3)c2c1` (stereo not shown) [Example A12, N-(cyclopropyl(phenyl)methyl)-3-(4-morpholinophenyl)-1H-indazole-5-carboxamide], the IC50 at human TTK, on human PLK4 and at Aurora B was at most 5 µM in each case. The concentration for 50% growth inhibition (GI50) in assay [2], in [3], in assay [5] and in assay [6] was at most 5 µM throughout.
For the compound `CCc1cccc(CC)c1NC(=O)Nc1ccc2[nH]nc(-c3ccc(OC4CCN(C)CC4)cc3)c2c1` [Example A46], the IC50 on human TTK, at human PLK4 and on Aurora B was at most 5 µM throughout. The GI50 (in the assay on HT29 colon cancer cells; in [1]; in [2]; in [3]; in assay [4]; in assay [5]) was at most 5 µM each time. Moreover, the GI50 in assay [6] was at most 5 µM.
For the compound `C[C@H]1CCCN1[C@H](C(=O)Nc1ccc2[nH]nc(-c3ccc(OC4CCN(C)CC4)cc3)c2c1)c1ccsc1` [Example A41, (S)—N-(3-(4-((1-methylpiperidin-4-yl)oxy)phenyl)-1H-indazol-5-yl)-2-((S)-2-methylpyrrolidin-1-yl)-2-(thiophen-3-yl)acetamide], the IC50 at human TTK, on human PLK4 and at Aurora B was at most 5 µM each time. The GI50 (in the assay with HT29 colon cancer cells; in assay [1]; in assay [2]; in assay [3]; in [5]; in assay [6]) was at most 5 µM in each case.
Take `CN1CCC(Oc2ccc(-c3n[nH]c4ccc(C(=O)NCc5ccccc5CN5CCOCC5)cc34)cc2)CC1` [Example A109, 3-(4-(1-Methylpiperidin-4-yloxy)phenyl)-N-(2-(morpholinomethyl)benzyl)-1H-indazole-5-carboxamide]: the IC50 on human TTK, at human PLK4 and on Aurora B was at most 5 µM in each case. Moreover, the 50% growth inhibitory concentration (GI50) (in [7]; in the assay with HT29 colon cancer cells; in assay [1]; in assay [2]; in assay [4]; in assay [6]) was at most 5 µM throughout.
In the case of `CN1CCC(Oc2ccc(-c3n[nH]c4ccc(C(=O)NCc5ccccc5N5CCOCC5)cc34)cc2)CC1` [Example A108, 3-(4-(1-Methylpiperidin-4-yloxy)phenyl)-N-(2-morpholinobenzyl)-1H-indazole-5-carboxamide], the half-inhibitory concentration (IC50) on human TTK, on human PLK4 and at Aurora B was at most 5 µM in each case. The GI50 (in assay [7]; in the assay on HT29 colon cancer cells; in assay [1]; in assay [2]; in assay [4]; in [6]) was at most 5 µM throughout.
With `CCc1cccc(CC)c1NC(=O)Nc1ccc2[nH]nc(-c3ccc(C4CN(C)CCO4)cc3)c2c1` (stereo not shown) [Example A124, 1-(2,6-diethylphenyl)-3-(3-(4-(4-methylmorpholin-2-yl)phenyl)-1H-indazol-5-yl)urea], the IC50 on human TTK, at human PLK4 and on Aurora B was at most 5 µM throughout. For the same compound, the GI50 in [7] was at most 5 µM; with HT29 colon cancer cells, at most 5 µM; in [1] it was 20 to 50 µM; in [2], at most 5 µM; in assay [4], at most 5 µM; in [6], at most 5 µM.
As for `O=CN1CCC(Oc2ccc(-c3n[nH]c4ccc(C(=O)NC(c5ccccc5)C5CC5)cc34)cc2)CC1` (stereo not shown) [Example A126, N-(cyclopropyl(phenyl)methyl)-3-(4-((1-formylpiperidin-4-yl)oxy)phenyl)-1H-indazole-5-carboxamide], the IC50 at human TTK, at human PLK4 and at Aurora B was at most 5 µM in each case. For the same compound, the GI50 (in [7]; in the assay with HT29 colon cancer cells; in assay [1]; in [2]; in [4]; in assay [6]) was at most 5 µM each time.
For `CN(C)C(=O)CN1CCC(Oc2ccc(-c3n[nH]c4ccc(C(=O)NC(c5ccccc5)C5CC5)cc34)cc2)CC1` (stereo not shown) [Example A158, N-(cyclopropyl(phenyl)methyl)-3-(4-((1-(2-(dimethylamino)-2-oxoethyl)piperidin-4-yl)oxy)phenyl)-1H-indazole-5-carboxamide], the IC50 at human TTK, at human PLK4 and on Aurora B was at most 5 µM throughout. The GI50 (in [7]; in the assay with HT29 colon cancer cells; in [1]; in assay [2]; in [4]; in assay [6]) was at most 5 µM throughout.

One may read the IC50 as the concentration that inhibits the measured activity by half. As a reminder, the GI50 is the concentration that inhibits growth by half.
